Data published in patent US20170066759A1, “AROMATIC 5-MEMBERED HETEROCYCLIC DERIVATIVE HAVING TRPV4-INHIBITING ACTIVITY” (Shionogi & Co., Ltd., priority 2012, published 2017).

Biological target: T1, human TRPV4 (hTRPV4/CHO cells) (Homo sapiens, UniProt Q9HBA0)
T1 construct: expressed in transfected cells; host or cells: CHO-K1
Experiment: Test Example 1: TRPV4 inhibitory activity (IC50 value), 4α-PDD stimulation, Fluo4 calcium fluorescence (FLIPR TETRA)
Type: cell-based
Settings: Test Example 1, 4α-PDD stimulation, read-out: Test 1 IC50

T1 sequence (Q9HBA0 whole entry): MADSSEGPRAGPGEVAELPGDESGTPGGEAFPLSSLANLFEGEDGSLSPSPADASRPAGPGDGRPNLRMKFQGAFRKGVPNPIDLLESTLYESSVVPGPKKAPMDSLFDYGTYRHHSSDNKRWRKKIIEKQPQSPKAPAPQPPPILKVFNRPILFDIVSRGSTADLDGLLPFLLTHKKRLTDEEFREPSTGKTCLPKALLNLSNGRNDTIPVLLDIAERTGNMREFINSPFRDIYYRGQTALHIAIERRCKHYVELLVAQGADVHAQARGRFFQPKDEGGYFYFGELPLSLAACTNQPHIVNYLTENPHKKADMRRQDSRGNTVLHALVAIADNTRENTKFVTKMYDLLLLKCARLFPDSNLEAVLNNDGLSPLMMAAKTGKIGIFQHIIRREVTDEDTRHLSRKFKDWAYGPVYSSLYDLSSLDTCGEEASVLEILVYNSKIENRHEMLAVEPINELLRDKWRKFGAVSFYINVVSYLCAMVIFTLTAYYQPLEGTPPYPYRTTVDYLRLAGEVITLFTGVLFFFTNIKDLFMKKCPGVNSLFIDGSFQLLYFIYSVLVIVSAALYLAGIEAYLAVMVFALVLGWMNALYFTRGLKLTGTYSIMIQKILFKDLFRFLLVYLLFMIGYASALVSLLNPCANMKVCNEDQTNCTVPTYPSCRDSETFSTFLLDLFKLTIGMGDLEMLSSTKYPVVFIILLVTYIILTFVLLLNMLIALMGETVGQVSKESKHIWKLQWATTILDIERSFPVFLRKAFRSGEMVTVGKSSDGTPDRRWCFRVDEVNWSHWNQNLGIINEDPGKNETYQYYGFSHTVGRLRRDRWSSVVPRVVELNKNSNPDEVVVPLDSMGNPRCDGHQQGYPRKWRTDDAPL

## CC(O)c1nc(CO)sc1-c1csc(NC(=O)Cc2ccc(S(=O)(=O)C(F)(F)F)cc2)n1 (racemic) [Compound I-235]
  IC50: < 100 nM

## Cc1nc(CO)sc1-c1csc(NC(=O)C2Oc3ccc(Cl)cc3O2)n1 (racemic) [Compound I-238]
  IC50: < 100 nM

## Cc1nc(CO)sc1-c1csc(NC(=O)CC2Cc3ccccc3C2)n1 (racemic) [Compound I-239]
  IC50: 100 to 1000 nM

## Cc1nc(C(C)O)sc1-c1csc(NC(=O)Cc2ccc(S(=O)(=O)C(F)(F)F)cc2)n1 (racemic) [Compound I-287]
  IC50: < 100 nM

## Cc1nc(C(C)O)sc1-c1csc(NC(=O)[C@H]2C[C@H](F)C2)n1 (mixture of isomers) [Compound I-298]
  IC50: 1000 to 8000 nM

## Cc1nc(C(C)O)sc1-c1csc(NC(=O)[C@H]2C[C@@H](F)C2)n1 (mixture of isomers) [Compound I-299]
  IC50: 1000 to 8000 nM

## Cc1nc(C(C)O)oc1-c1csc(NC(=O)Cc2ccc(S(=O)(=O)C(F)(F)F)cc2)n1 (racemic) [Compound I-387]
  IC50: 100 to 1000 nM

## Cc1nc(C(C)O)oc1-c1csc(NC(=O)Cn2cc(C(F)(F)F)cn2)n1 (racemic) [Compound I-420]
  IC50: 1000 to 8000 nM

## Cc1nc(C(C)O)sc1-c1csc(NC(=O)C2CN(c3ccc(C(F)(F)F)cc3)C2)n1 (racemic) [Compound I-467]
  IC50: < 100 nM

## CC(=O)NC(C)c1nc(CO)sc1-c1csc(NC(=O)Cc2ccc(S(=O)(=O)C(F)(F)F)cc2)n1 (racemic) [Compound I-472]
  IC50: 1000 to 8000 nM

## Cc1nc(C(C)O)sc1-c1csc(NC(=O)C2CN(c3ccc(C(F)(F)F)cn3)C2)n1 (racemic) [Compound I-473]
  IC50: 100 to 1000 nM

## CC(OC(N)=O)c1nc(CO)sc1-c1csc(NC(=O)Cc2ccc(S(=O)(=O)C(F)(F)F)cc2)n1 (racemic) [Compound I-474]
  IC50: 100 to 1000 nM

## CC(O)c1nc(CO)c(-c2csc(NC(=O)Cc3ccc(S(=O)(=O)C(F)(F)F)cc3)n2)s1 (racemic) [Compound I-500]
  IC50: 100 to 1000 nM

## Cc1nc(C)c(-c2csc(NC(=O)C3(C)CCN(c4ccc(C(F)(F)F)cc4)CC3)n2)s1 (racemic) [Compound I-512]
  IC50: < 100 nM

## Cc1nc(C)c(-c2csc(NC(=O)C3(CC(=O)OC(C)(C)C)CN(c4ccc(C(F)(F)F)cc4)C3)n2)s1 (racemic) [Compound I-519]
  IC50: < 100 nM

## COc1cc(CC(=O)Nc2nc(-c3sc(C)nc3C)cs2)cc(C(=O)NC(C(C)C)C(F)(F)F)c1 (racemic) [Compound I-527]
  IC50: < 100 nM

## Cc1nc(C)c(-c2csc(NC(=O)C3(CCCO)CN(c4ccc(C(F)(F)F)cc4)C3)n2)s1 (racemic) [Compound I-529]
  IC50: 100 to 1000 nM

## Cc1nc(C)c(-c2csc(NC(=O)C3(COCc4ccccc4)CN(c4ccc(C(F)(F)F)cc4)C3)n2)s1 (racemic) [Compound I-530]
  IC50: < 100 nM

## COCC1(C(=O)Nc2nc(-c3sc(C)nc3C)cs2)CN(c2ccc(C(F)(F)F)cc2)C1 (racemic) [Compound I-531]
  IC50: < 100 nM

## Cc1nc(C)c(-c2csc(NC(=O)C3(CO)CN(c4ccc(C(F)(F)F)cc4)C3)n2)s1 (racemic) [Compound I-532]
  IC50: < 100 nM

## Cc1nc(C)c(-c2csc(NC(=O)C3(F)CN(c4ccc(C(F)(F)F)cc4)C3)n2)s1 (racemic) [Compound I-533]
  IC50: < 100 nM

## Cc1nc(C)c(-c2csc(NCC(O)c3ccccc3)n2)s1 (racemic) [II-39]
  IC50: 100 to 1000 nM

## Cc1nc(C)c(-c2csc(NC(Cc3ccc(Cl)cc3)C(=O)NCc3ccccc3)n2)s1 (racemic) [II-43]
  IC50: 1000 to 8000 nM

## Cc1nc(C)c(-c2csc(NC(Cc3ccc(Cl)cc3)C(=O)Nc3ccccc3)n2)s1 (racemic) [II-44]
  IC50: 1000 to 8000 nM

## Cc1nc(C)c(-c2csc(NC(Cc3ccc(Cl)cc3)C(=O)N3CCN(C)CC3)n2)s1 (racemic) [II-45]
  IC50: 1000 to 8000 nM

## Cc1nc(C)c(-c2csc(NC(Cc3ccc(Cl)cc3)C(=O)NC3CCOCC3)n2)s1 (racemic) [II-46]
  IC50: 1000 to 8000 nM

## Cc1nc(C)c(-c2csc(NCC3Cc4cc(Cl)ccc4O3)n2)s1 (racemic) [II-48]
  IC50: < 100 nM

## CCCCOC(CNc1nc(-c2sc(C)nc2C)cs1)c1ccc(Cl)cc1 (racemic) [II-50]
  IC50: 100 to 1000 nM

## CC(OC(N)=O)c1nc(CO)sc1-c1csc(NC(=O)Cc2ccc(S(=O)(=O)C(F)(F)F)cc2)n1 (single isomer, unassigned) [Compound I-478]
  IC50: 100 to 1000 nM

## CC(OC(N)=O)c1nc(CO)sc1-c1csc(NC(=O)Cc2ccc(S(=O)(=O)C(F)(F)F)cc2)n1 (single isomer, unassigned) [Compound I-479]
  IC50: 1000 to 8000 nM

## CC(=O)NC(C)c1nc(CO)sc1-c1csc(NC(=O)Cc2ccc(S(=O)(=O)C(F)(F)F)cc2)n1 (single isomer, unassigned) [Compound I-481]
  IC50: 100 to 1000 nM

## CC(=O)NC(C)c1nc(CO)sc1-c1csc(NC(=O)Cc2ccc(S(=O)(=O)C(F)(F)F)cc2)n1 (single isomer, unassigned) [Compound I-482]
  IC50: 100 to 1000 nM

## Cc1nc(CO)sc1-c1csc(NC(=O)OC(C)(C)C)n1 [Compound I-30]
  IC50: 1000 to 8000 nM

## Cc1nc(C)c(-c2nc(NC(=O)Cc3c(F)cccc3F)sc2-c2ccncc2)s1 [Compound I-60]
  IC50: 1000 to 8000 nM

## Cc1nc(C)c(-c2nc(NC(=O)Cc3c(F)cccc3F)sc2-c2cscn2)s1 [Compound I-61]
  IC50: 100 to 1000 nM

## Cc1nc(C)c(-c2nc(NC(=O)Cc3c(F)cccc3F)sc2-c2cnn(C)c2)s1 [Compound I-62]
  IC50: 1000 to 8000 nM

## Cc1nc(C)c(-c2nc(NC(=O)Cc3c(F)cccc3F)sc2-c2cccnc2)s1 [Compound I-63]
  IC50: 1000 to 8000 nM

## Cc1nc(C)c(-c2nc(NC(=O)Cc3c(F)cccc3F)sc2-c2ccccc2O)s1 [Compound I-64]
  IC50: 100 to 1000 nM

## Cc1nc(C)c(-c2nc(NC(=O)Cc3c(F)cccc3F)sc2I)s1 [Compound I-65]
  IC50: 1000 to 8000 nM

## Cc1nc(C)c(-c2nc(NC(=O)Cc3c(F)cccc3F)sc2-c2ccccc2Cl)s1 [Compound I-66]
  IC50: 1000 to 8000 nM

## Cc1nc(C)c(-c2nc(NC(=O)Cc3c(F)cccc3F)sc2-c2ccc(N(C)C)cc2)s1 [Compound I-67]
  IC50: 1000 to 8000 nM

## Cc1nc(C)c(-c2nc(NC(=O)Cc3c(F)cccc3F)sc2-c2cccc(N(C)C)c2)s1 [Compound I-68]
  IC50: 1000 to 8000 nM

## Cc1nc(C)c(-c2nc(NC(=O)Cc3c(F)cccc3F)sc2-c2ccc(O)cc2)s1 [Compound I-69]
  IC50: 1000 to 8000 nM

## Cc1nc(C)c(-c2nc(NC(=O)Cc3c(F)cccc3F)sc2-c2cccc(O)c2)s1 [Compound I-70]
  IC50: 1000 to 8000 nM

## C=C(C)c1sc(NC(=O)Cc2c(F)cccc2F)nc1-c1sc(C)nc1C [Compound I-71]
  IC50: 1000 to 8000 nM

## Cc1nc(C)c(-c2nc(NC(=O)Cc3c(F)cccc3F)sc2C)s1 [Compound I-72]
  IC50: 1000 to 8000 nM

## Cc1nc(C)c(-c2nc(NC(=O)Cc3c(F)cccc3F)sc2/C=C\c2ccccc2)s1 [Compound I-73]
  IC50: 1000 to 8000 nM

## Cc1nc(C)c(-c2nc(NC(=O)Cc3c(F)cccc3F)sc2CO)s1 [Compound I-74]
  IC50: 1000 to 8000 nM

## Cc1nc(C)c(-c2nc(NC(=O)Cc3c(F)cccc3F)sc2C(=O)Nc2ccccc2)s1 [Compound I-75]
  IC50: 1000 to 8000 nM

## Cc1nc(CO)sc1-c1csc(NC(=O)Cc2c(F)cccc2F)n1 [Compound I-76]
  IC50: < 100 nM

## Cc1nc(C)c(-c2csc(NC(=O)Cc3cc(F)cc(C#N)c3)n2)s1 [Compound I-77]
  IC50: < 100 nM

## Cc1nc(C)c(-c2csc(NC(=O)Cc3ccc(F)c(C#N)c3)n2)s1 [Compound I-78]
  IC50: < 100 nM

## Cc1nc(C)c(-c2csc(NC(=O)Cc3cccc(S(C)(=O)=O)c3)n2)s1 [Compound I-79]
  IC50: 100 to 1000 nM

## CCS(=O)(=O)c1ccc(CC(=O)Nc2nc(-c3sc(C)nc3C)cs2)cc1 [Compound I-80]
  IC50: 100 to 1000 nM

## Cc1nc(C)c(-c2nc(NC(=O)Cc3c(F)cccc3F)sc2C(=O)Nc2cccc(Cl)c2)s1 [Compound I-82]
  IC50: 1000 to 8000 nM

## Cc1nc(C)c(-c2nc(NC(=O)Cc3c(F)cccc3F)sc2C(=O)NCc2ccccc2)s1 [Compound I-83]
  IC50: 1000 to 8000 nM

## Cc1nc(C)c(-c2nc(NC(=O)Cc3c(F)cccc3F)sc2C(=O)Nc2ccc(C#N)cc2)s1 [Compound I-84]
  IC50: 1000 to 8000 nM

## Cc1nc(C)c(-c2nc(NC(=O)Cc3c(F)cccc3F)sc2C(=O)Nc2ccc(Cl)cc2)s1 [Compound I-85]
  IC50: 1000 to 8000 nM

## Cc1nc(C)c(-c2nc(NC(=O)Cc3c(F)cccc3F)sc2C(=O)Nc2ccccc2Cl)s1 [Compound I-86]
  IC50: 1000 to 8000 nM

## CCCCCCNC(=O)c1sc(NC(=O)Cc2c(F)cccc2F)nc1-c1sc(C)nc1C [Compound I-87]
  IC50: 1000 to 8000 nM

## Cc1nc(C)c(-c2csc(NC(=O)C3Cc4ccccc4C3)n2)s1 [Compound I-88]
  IC50: 1000 to 8000 nM

## Cc1nc(C)c(-c2csc(NC(=O)N3CCC(C(F)(F)F)CC3)n2)s1 [Compound I-89]
  IC50: 1000 to 8000 nM

## Cc1nc(C)c(-c2csc(NC(=O)N3CC(F)C3)n2)s1 [Compound I-90]
  IC50: 1000 to 8000 nM

## Cc1nc(C)c(-c2csc(NC(=O)N(C)c3c(F)cccc3F)n2)s1 [Compound I-91]
  IC50: 1000 to 8000 nM

## Cc1nc(C)c(-c2csc(NC(=O)Cc3ccc(S(C)(=O)=O)cc3F)n2)s1 [Compound I-92]
  IC50: 100 to 1000 nM

## Cc1[nH]c(=O)sc1-c1csc(NC(=O)Cc2c(F)cccc2F)n1 [Compound I-93]
  IC50: 100 to 1000 nM

## CCOC(=O)c1nc(C)c(-c2csc(NC(=O)Cc3c(F)cccc3F)n2)s1 [Compound I-94]
  IC50: 100 to 1000 nM

## Cc1nc(CO)c(-c2csc(NC(=O)Cc3c(F)cccc3F)n2)s1 [Compound I-96]
  IC50: 100 to 1000 nM

## Cc1nc(C(C)(C)O)sc1-c1csc(NC(=O)Cc2c(F)cccc2F)n1 [Compound I-97]
  IC50: 100 to 1000 nM

## CC(=O)c1nc(C)c(-c2csc(NC(=O)Cc3c(F)cccc3F)n2)s1 [Compound I-98]
  IC50: 100 to 1000 nM

## COc1ccccc1CC(=O)Nc1nc(-c2sc(C)nc2C)cs1 [Compound I-99]
  IC50: < 100 nM

## Cc1nc(C)c(-c2csc(NC(=O)Cc3cccc(OC(F)(F)F)c3)n2)s1 [Compound I-100]
  IC50: < 100 nM

## Cc1nc(C)c(-c2csc(NC(=O)Cc3cccc(CN(C)C)c3)n2)s1 [Compound I-101]
  IC50: 1000 to 8000 nM

## Cc1nc(C)c(-c2csc(NC(=O)C(C)c3c(F)cccc3F)n2)s1 (stereo not drawn) [Compound I-102]
  IC50: 100 to 1000 nM

## Cc1nc(C)c(-c2csc(NC(=O)C(O)c3c(F)cccc3F)n2)s1 (stereo not drawn) [Compound I-103]
  IC50: 1000 to 8000 nM
